Source: patent US20250250252A1, “PIPERIDINYLBENZONITRILE DERIVATIVES AS INHIBITORS OF GLUTAMINYL-PEPTIDE CYCLOTRANSFERASE AND GLUTAMINYL-PEPTIDE CYCLOTRANSFERASE LIKE PROTEIN” (Boehringer Ingelheim International GmbH, priority 2024, published 2025)

Experiments:
[1] = tested on: SIRPα signalling induced by A549 cells; assay: Assay B: SIRPα signalling assay using A549 cells; assay type: cell-based; conditions: Homo sapiens, read-out: Inhibition of SIRPα signalling induced by A549 cells: IC50
Experimental: Two cell types are independently used: the Raji cell line (lymphoblast-like human cell line derived from B lymphocytes from a Burkitt's lymphoma patient in 1963) and A549 cells (adenocarcinomic human alveolar basal epithelial cells).
Test compounds were dissolved in 100% DMSO and serially diluted into a white 384-well microtiter cell culture plate (PerkinElmer #60076780 in case of Raji assay; PDL-coated plates Greiner #781945 in case of A549 assay). 5000 Raji cells (ATCC #CC86) or 5000 A549 cells (ATCC #CCL-185) in Assay Complete Cell Plating reagent 30 (DiscoverX 93-0563R30B) were added per well. The assay plate was incubated for 48 h at 37° C., 95% humidity and 5% CO2. 15000 reporter cells (Jurkat PathHunter SIRPαV1, DiscoverX #93-1135C19) were added to each well, and the plate was incubated for 5 h at 37° C., 95% humidity and 5% CO2. Bioassay reagent 1 of the PathHunter Bioassay detection kit (DiscoverX 93-0001) was added to each well of the plate using a multichannel pipette followed by a 15 min incubation at room temperature. Afterwards bioassay reagent 2 was added followed by 60 min incubation at room temperature (incubation in the dark).
The analysis of the data was performed using the luminescence signal generated by betagalactosidase in the PathHunter reporter cell line. The luminescence measurement was done using a Pherastar Multi-Mode Reader. Dose-response curves & IC50 data were calculated with 4-parameter sigmoidal dose response formula.

CACO-2 cells = assay: Assay C: Permeability in CACO-2 cells; assay type: in vitro ADME; conditions: pair comparison without/with 4-fluoropiperidyl
Experimental: (§1) Caco-2 cells (1-2×10^5 cells/1 cm^2 area) are seeded on filter inserts (Costar transwell polycarbonate or PET filters, 0.4 μm pore size) and cultured (DMEM) for 10 to 25 days. Compounds are dissolved in appropriate solvent (like DMSO, 1-20 mM stock solutions). […] The transport solution (TL) is applied to the apical or basolateral donor side for measuring A-B or B-A permeability (3 filter replicates), respectively. Samples are collected at the start and end of experiment from the donor and at various time intervals for up to 2 hours also from the receiver side for concentration measurement by HPLC-MS/MS or scintillation counting. Sampled receiver volumes are replaced with fresh receiver solution.
(§2) Efflux ratio (ER)=permeability B-A/permeability A-B

murine hepatocytes = assay: Assay E: Stability in murine hepatocytes; assay type: in vitro ADME, mouse; conditions: 1 μM
Experimental: The metabolic degradation of the test compound is assayed in a murine hepatocyte suspension.
Murine hepatocytes (typically cryopreserved) are incubated in an appropriate buffer system (e.g. Dulbecco's modified eagle medium plus 3.5 μg glucagon/500 mL, 2.5 mg insulin/500 mL and 3.75 mg/500 mL hydrocortison) containing 5% species serum.
Following a (typically) 30 min preincubation in an incubator (37° C., 10% CO2) 5 μl of test compound solution (80 μM; from 2 mM in DMSO stock solution diluted 1:25 with medium) are added into 395 μl hepatocyte suspension (cell density in the range 0.25-5 Mio cells/mL, typically 1 Mio cells/mL; final concentration of test compound 1 μM, final DMSO concentration 0.05%).
The cells are incubated for six hours (incubator, orbital shaker) and samples (2 μl) are taken at 0, 0.5, 1, 2, 4 and 6 hours. Samples are transferred into acetonitrile and pelleted by centrifugation (5 min). The supernatant is transferred to a new 96-deepwell plate, evaporated under nitrogen and resuspended.
CLint is calculated as follows CL_[…]=Dose/AUC=(C0/CD)/(AUD+clast/k)×1000/60. C0: initial concentration in the incubation [μM], CD: cell density of vital cells [10e6cells/mL], AUD: area under the data [μM×h], clast: concentration of last data point [μM], k: slope of the regression line for parent decline [h−1].
The calculated in vitro hepatic intrinsic clearance can be scaled up to the intrinsic in vivo hepatic Clearance and used to predict hepatic in vivo blood clearance (CL) by the use of a liver model (well stirred model).
CL_[…]_INVIVO[ml/min/kg]=(CL_[…][μL/min/10e6cells]×hepatocellularity[10e6cells/g liver]×liver factor[g/kg bodyweight])/1000
CL[ml/min/kg]=CL_[…]_INVIVO[ml/min/kg]×hepatic blood flow[ml/min/kg]/(CL_[…]_INVIVO[ml/min/kg]+hepatic blood flow[ml/min/kg])
Hepatocellularity,mouse:120×10e6cells/g liver
Liver factor,mouse:55 g/kg bodyweight
Blood flow,mouse:90 ml/(min×kg)

Ramos cells = conditions: disclosed in WO 2024/020517 [00698]; read-out: cellular activity in Ramos cells IC50; cited from earlier work
QPCTL = QPCTL (Homo sapiens (Human), UniProt Q9NXS2); assay: Assay A: biochemical QPCTL activity assay (MALDI-TOF MS); conditions: read-out: Inhibition of QPCTL: IC50
Sequence of QPCTL (Q9NXS2 whole entry): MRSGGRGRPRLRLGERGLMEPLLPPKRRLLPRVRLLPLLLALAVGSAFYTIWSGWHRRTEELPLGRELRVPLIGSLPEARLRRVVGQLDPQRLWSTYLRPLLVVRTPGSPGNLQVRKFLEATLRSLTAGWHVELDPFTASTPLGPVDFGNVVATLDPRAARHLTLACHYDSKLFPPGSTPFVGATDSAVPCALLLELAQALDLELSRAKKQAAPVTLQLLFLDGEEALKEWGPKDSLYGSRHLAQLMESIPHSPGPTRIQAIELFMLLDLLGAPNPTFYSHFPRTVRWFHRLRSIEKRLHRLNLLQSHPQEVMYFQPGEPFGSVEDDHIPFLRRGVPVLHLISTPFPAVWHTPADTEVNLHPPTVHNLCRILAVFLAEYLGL
Experimental: (§3) QPCT or QPCTL dependent conversion of N-terminal glutamine to pyroglutamate of CD47 was monitored via MALDI-TOF MS. Test compounds were dissolved in 100% DMSO and serially diluted into clear 1,536-well microtiter plates. Enzymatic reactions were set up in assay buffer containing 20 mM Tris pH 7.5, 0.1 mM TCEP, 0.01% BSA, and 0.001% Tween20. […] The plates were incubated for 10 min in a humidified incubator at 24° C. Subsequently, 2.5 μL of CD47 peptide substrate surrogate (^19[…]^33) was added to each well (final concentration: 10 μM for QPCTL/20 μM for QPCT). The plates were mixed for 30 sec at 1,000 rpm and subsequently incubated for 40 min in a humidified incubator at 24° C. […] The plates were sealed with an adhesive foil, mixed for 30 s at 1,000 rpm and stored at room temperature until preparation of the MALDI target plates. […] QPCT or QPCTL activity was monitored by calculating the ratio between product and internal standard signals followed by normalization to high (100% activity) and low (0% activity) controls. Determination of compound potencies was obtained by fitting the dose-response data to a four-parameter logistical equation.

QPCT = QPCT (Homo sapiens (Human), UniProt Q16769); assay: Assay A: biochemical QPCT activity assay (MALDI-TOF MS); conditions: read-out: Inhibition of QPCT: IC50
Sequence of QPCT (Q16769 29-361): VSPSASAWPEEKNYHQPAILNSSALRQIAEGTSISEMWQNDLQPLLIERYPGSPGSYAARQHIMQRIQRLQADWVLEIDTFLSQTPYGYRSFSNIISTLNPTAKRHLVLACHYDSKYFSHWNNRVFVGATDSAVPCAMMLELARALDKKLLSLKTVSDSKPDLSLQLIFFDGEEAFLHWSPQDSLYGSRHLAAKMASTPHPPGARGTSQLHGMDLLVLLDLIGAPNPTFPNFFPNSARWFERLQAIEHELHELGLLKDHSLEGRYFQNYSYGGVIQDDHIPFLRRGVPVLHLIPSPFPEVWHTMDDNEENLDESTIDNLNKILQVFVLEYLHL
Experimental: as §3

[2] = Assay C: Permeability in CACO-2 cells; assay type: in vitro ADME; conditions: human, Assay C
Experimental: as §1, §2

CYP3A4 mRNA = assay: Assay D: CYP induction screening assay in primary human hepatocytes; assay type: in vitro ADME; conditions: 48 h
Experimental: Cryopreserved plateable human hepatocytes (single donor, BioIVT) were thawed and plated in Collagen-I coated 96-well-plates at a cell density of 0.07 million cells per well.
After a 6 h attachment period, the seeding medium was replaced by serum-free William's medium E supplemented with Matrigel (0.25 mg/ml) and allowed to recover overnight. 24 h post-seeding, serum-free Williams E medium containing the test compound at a final concentration of 10 μM and a final DMSO content of 0.1% and 0.1% DMSO (solvents treated control), respectively, was added to predefined wells. Exposure solutions were renewed after 24 h.
After 48 h of treatment in total, the effect of the test compounds on CYP3A4 mRNA expression was assessed using the QuantiGene Plex Gene Expression Assay. Hepatocytes were lysed and total RNA was extracted using the QuantiGene Sample Processing Kit according to the instructions of the manufacturer.
mRNA quantification was conducted using a customized QuantiGene Plex Panel to analyse CYP3A4 and the housekeeper genes RPL32, EIF4E2 and GUSB according to the instructions of the manufacturer and measured on a Luminex™ instrument. Signal was reported as median fluorescence intensity (MFI), which is proportional to the number of target RNA molecules present in the sample.
For calculation of CYP3A4 mRNA induction, the signal for CYP3A4 was normalized against the geometric mean of the signal obtained for the housekeeper genes for hepatocytes exposed to test compounds in relation to solvent-treated samples according to the following equation:
n-fold induction=(MFI CYP3A4 (treated)/Xgeo MFI (RPL32,EIF4E2,GUSB))/(MFI CYP3A4 (solvent control)/Xgeo MFI (RPL32,EIF4E2,GUSB))

isolated QPCTL = isolated QPCTL (Homo sapiens (Human), UniProt Q9NXS2); conditions: disclosed in WO 2023/205173 [00470]; read-out: inhibitory activity on isolated QPCTL IC50; cited from earlier work
Sequence of isolated QPCTL (Q9NXS2 whole entry, species assumed): as the sequence (Q9NXS2 whole entry) above

A549 cells = conditions: disclosed in WO 2023/205173 [00470]; read-out: cellular activity in A549 cells EC50; cited from earlier work

Compound: Cn1cnnc1C1CCN(c2c(C#N)cccc2-c2ccc(F)nc2)CC1 [(1)/QP5020, reference compound]
- IC50 [1]: 8 nM
- CACO2 Perm. (CACO-2 cells): 28.0 10^−6 cm/sec
- Mouse Hepatocyte Stability QH (murine hepatocytes): 82%
- IC50 (Ramos cells): < 100 nM

Compound: Cn1c(N)nnc1C1CCN(c2c(C#N)cccc2-c2ccc(F)nc2)CC1 [Compound 14, reference compound]
- IC50 (QPCTL): 1 nM
- IC50 (QPCT): < 1 nM
- efflux ratio ([2]; Caco-2, pH 7.2, permeability B-A/permeability A-B, read-out: Efflux Ratio): 22.2
- Papp A→B ([2]; pH 7.2, CACO-2 cells): 0.7 ×10⁻⁶ cm/s
- n-fold induction of CYP3A4 at 10 μM (CYP3A4 mRNA): 1.9 n-fold
- Mouse Hepatocyte Stability QH (murine hepatocytes): 31%
- IC50 (isolated QPCTL): < 1000 nM
- EC50 (A549 cells): < 1000 nM
